The values that follow come from ChEMBL document CHEMBL5113423, “Discovery and preclinical profile of sudapyridine (WX-081), a novel anti-tuberculosis agent” (Bioorg Med Chem Lett, 2022).

The test system of the assay is Mycobacterium tuberculosis variant bovis. Description: Antimycobacterial activity against Mycobacterium bovis ATCC35737 assessed as mycobacterial growth inhibition. Type of assay: functional.

Values after ≈ are worked out from the molar mass of the structure shown.

In the case of `COc1ncc(-c2ccccc2)cc1[C@@H](c1ccccc1)[C@@](O)(CCN(C)C)c1cccc2ccccc12`, the MIC (in general, the smallest concentration in the dilution series that meets the test's criterion for growth inhibition) is 0.5 µg/mL (≈ 0.995 µM).
